Data: US8288371B2, “Ortho pyrrolidine, benzyl-substituted heterocycle CCR1 antagonists for autoimmune diseases and inflammation” (Pharmacopeia, LLC, priority 2007, dated 2012)

Molecular target: T1, human CCR1 (Homo sapiens, UniProt P32246)
T1 sequence (P32246 1-355): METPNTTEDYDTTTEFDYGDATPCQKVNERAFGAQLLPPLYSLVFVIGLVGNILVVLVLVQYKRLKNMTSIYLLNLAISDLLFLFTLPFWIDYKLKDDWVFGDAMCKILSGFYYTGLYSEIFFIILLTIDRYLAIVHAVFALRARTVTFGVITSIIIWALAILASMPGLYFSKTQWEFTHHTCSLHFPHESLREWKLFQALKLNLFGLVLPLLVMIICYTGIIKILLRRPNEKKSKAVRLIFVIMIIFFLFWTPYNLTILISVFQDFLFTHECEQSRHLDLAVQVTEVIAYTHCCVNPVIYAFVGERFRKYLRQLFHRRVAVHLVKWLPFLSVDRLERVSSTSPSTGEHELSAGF
Assay: CCR1 binding protocol (SPA, [125I]-MIP-1α displacement)
Settings: cell membrane expressing human CCR1, 0.1 nM [125I]-MIP-1α, 4 hours at ambient temperature; read-out: Relative potency (IC50)
Method in brief: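 Human CCR1 membranes (0.5 μg/well) on SPA beads were incubated with compound and 0.1 nM [125I]-MIP-1α (final) for 4 h at ambient temperature. Buffer was Tris pH 7.4 with NaCl, KCl, MnCl and 0.1% BSA. IC50 came from ½-log compound dilutions (10 mM top DMSO stock) by displacement of bound radioligand.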

SMILES | IC50
Cc1nnc([C@H]2CCCN2C(=O)NC(C)(C)c2ccccc2)n1Cc1ccc(Cl)cc1 [Compound 179] | < 50 nM
Cc1nnc([C@H]2CCCN2C(=O)Nc2c(Cl)ncnc2N(C)C)n1Cc1ccc(Cl)cc1 [Compound 182] | < 50 nM
Cc1noc(-c2ccccc2)c1NC(=O)N1CCC[C@@H]1c1nnc(Cl)n1Cc1ccc(Cl)cc1 [Compound 187] | < 50 nM
Cc1nc(Cl)nc(Cl)c1NC(=O)N1CCC[C@@H]1c1nnc(C)n1Cc1ccc(Cl)cc1 [Compound 188] | < 50 nM
COC(=O)c1cccc(NC(=O)N2CCC[C@@H]2c2nnc(C)n2Cc2ccc(Cl)cc2)c1C [Compound 189] | < 50 nM
Cc1cc(C(F)(F)F)ccc1NC(=O)N1CCC[C@@H]1c1nnc(C)n1Cc1ccc(Cl)cc1 [Compound 190] | < 50 nM
COC(=O)c1ccc(C)c(NC(=O)N2CCC[C@@H]2c2nnc(C)n2Cc2ccc(Cl)cc2)c1 [Compound 193] | < 50 nM
O=C(N[C@H]1CCOc2cc(C(F)(F)F)ccc21)N1CCC[C@@H]1c1nnc(Cl)n1Cc1ccc(Cl)cc1 [Compound 194] | < 50 nM
Cc1nnc([C@H]2CCCN2/C(=N\C#N)N[C@@H](C)c2cc3ccccc3o2)n1Cc1ccc(Cl)cc1 [Compound 195] | < 50 nM
CC[C@H](N/C(=N/C#N)N1CCC[C@@H]1c1nnc(C)n1Cc1ccc(Cl)cc1)c1cc2ccccc2o1 [Compound 196] | < 50 nM
Cc1nnc([C@H]2CCCN2C(=O)Nc2ccc(Br)cc2C(F)(F)F)n1Cc1ccc(Cl)cc1 [Compound 197] | < 50 nM
Cc1cc(Cl)cc(C)c1N/C(=N/C#N)N1CCC[C@@H]1c1nnc(C)n1Cc1ccc(Cl)cc1 [Compound 198] | < 50 nM
Cc1nnc([C@H]2CCCN2C(=O)N[C@H]2CCOc3c2cccc3C(F)(F)F)n1Cc1ccc(Cl)cc1 [Compound 199] | < 50 nM
Cc1nnc([C@H]2CCCN2C(=O)NCc2ccc(Cl)cc2Cl)n1Cc1ccc(Cl)cc1 [Compound 202] | < 50 nM
CCc1nnc([C@H]2CCCN2C(=O)Nc2c(C)noc2-c2ccccc2)n1Cc1ccc(Cl)cc1 [Compound 203] | < 50 nM
O=C(NCc1ccc(C(F)(F)F)cc1)N1CCC[C@@H]1c1nnc(Cl)n1Cc1ccc(Cl)cc1 [Compound 205] | < 50 nM
Cc1cc(C)c(NC(=O)N2CCC[C@@H]2c2nnc(C)n2Cc2ccc(Cl)cc2)c(C(N)=O)c1 [Compound 206] | < 50 nM
Cc1nnc([C@H]2CCCN2C(=O)N[C@H]2CCOc3cc(C#N)ccc32)n1Cc1ccc(Cl)cc1 [Compound 207] | < 50 nM

Continued, values first:

IC50 | SMILES
< 50 nM | Cc1nc(Cl)c(NC(=O)N2CCC[C@@H]2c2nnc(C)n2Cc2ccc(Cl)cc2)c(Cl)n1 [Compound 178]
< 50 nM | Cc1nnc([C@H]2CCCN2C(=O)N[C@H](C)c2ccc(Cl)cc2)n1Cc1ccc(Cl)cc1 [Compound 180]
< 50 nM | CC[C@H](NC(=O)N1CCC[C@@H]1c1nnc(C)n1Cc1ccc(Cl)cc1)c1ccccc1 [Compound 181]
50 to 500 nM | CCC(CC)NC(=O)N1CCC[C@@H]1c1nnc(C)n1Cc1ccc(Cl)cc1 [Compound 183]
50 to 500 nM | Cc1nnc([C@H]2CCCN2C(=O)N[C@@H](C)C2CCCCC2)n1Cc1ccc(Cl)cc1 [Compound 184]
50 to 500 nM | Cc1nnc([C@H]2CCCN2C(=O)NC2CCCCC2)n1Cc1ccc(Cl)cc1 [Compound 185]
50 to 500 nM | Cc1nnc([C@H]2CCCN2C(=O)NC2CCCCCC2)n1Cc1ccc(Cl)cc1 [Compound 186]
< 50 nM | CC[C@H](NC(=O)N1CCC[C@@H]1c1nnc(C)n1Cc1ccc(Cl)cc1)c1ccc(Cl)c(Cl)c1 [Compound 191]
< 50 nM | Cc1nnc([C@H]2CCCN2C(=O)Nc2c(Cl)nc(N)nc2Cl)n1Cc1ccc(Cl)cc1 [Compound 192]
< 50 nM | Cc1noc(C)c1NC(=O)N1CCC[C@@H]1c1nnc(C)n1Cc1ccc(Cl)cc1 [Compound 200]
< 50 nM | Cc1nnc([C@H]2CCCN2C(=O)Nc2c(Cl)ncnc2Cl)n1Cc1ccc(Cl)cc1 [Compound 201]
< 50 nM | Cc1nnc([C@H]2CCCN2C(=O)NC2(c3ccccc3)CC2)n1Cc1ccc(Cl)cc1 [Compound 204]
